Laboratory results published in patent US20240138404A1, “DISPENSER AND METHOD OF USE THEREOF” (S.C. JOHNSON & SON, INC., priority 2019, published 2024).

Key:
[1] = Emanation (release) rate of active agent from three-layer substrate 250 by weight loss over 40 days (Example 1, FIG. 13); type: physicochemical; conditions: substrate 250, approx. 30 cm^2, dosed with approx. 75 mg active agent
[2] = Emanation rate of transfluthrin from dispensing device 200 with substrate 250 in a sealed chamber over 75 days (Example 2, FIGS. 15A-15C); type: physicochemical; conditions: for constant emanation rate: dose about 2400 mg
Description: In connection with the examples herein, the emanation rates and the amount of active agent, e.g., an amount of transfluthrin, remaining in the substrate of the examples herein were measured by analyzing the weight loss of a particular substrate over time. More particularly, the amount of active agent remaining within a particular substrate may be calculated by first measuring the substrate 250 prior to dosing the substrate 250 with the active agent (or volatile material) and then subtracting that value from the weight of the substrate 250 at any given time after dosing. For example, with reference to Example 1, an initial weight of the substrate 250 was measured, the substrate 250 was dosed with an active agent (i.e., transfluthrin or metofluthrin), and a weight of the substrate 250 was measured multiple times after initial dosage and after emanation of the active agent into the ambient environment. The initial weight of the substrate 250 was then subtracted from a weight of the substrate 250 after initial dosage and this value indicated the remaining active agent within the substrate 250. Further, after determining the remaining active agent within the substrate 250, the amount of active agent (or volatile material) emanated to the ambient environment may also be calculated by subtracting the amount of active agent remaining in the substrate 250 from the initial dosage amount of the active agent. All weight measurements can be performed on an analytical scale. Further, the examples herein were conducted in a closed environment, such as a sealed chamber, having a controlled airflow rate.
In this example, the substrate 250 includes three layers, such as the first layer 252, the second layer 254, and the third layer 256. Further, in this embodiment, the first layer 252 is a woven material having a honeycomb weave pattern, a pore size of 3 mm and a thickness of 0.3 mm; the second layer 254 is a fibrous material constructed from polyester and the substrate 250 has a surface density of about 340 g/m^2; and the third layer 256 is a woven material having a honeycomb weave pattern, a pore size of 3 mm and a thickness of 0.3 mm. The substrate 250 was dosed with about 2400 mg of transfluthrin and the concentration of the transfluthrin within the substrate 250 at different locations in a sealed chamber was measured over a period of 75 days. During this trial, the substrate 250 was exposed to an airflow of about 4.8 meters/minute.

[3] = first location within sealed chamber (FIG. 15A)
[4] = second location within sealed chamber (FIG. 15B)
[5] = third location within sealed chamber (FIG. 15C)

Row | SMILES | constant linear release (emanation) rate [1] | time over which the substrate emanated the volatile material at constant linear rate [1] | period of emanation at constant, linear rate, from linear regression lines ([2]; extrapolated from the linear regression lines of FIGS. 15A-15C) | period of constant emanation [2, 3] | constant emanation rate [2, 3] | period of constant emanation [2, 4] | constant emanation rate [2, 4] | period of constant emanation [2, 5] | constant emanation rate [2, 5]
1 | C/C=C/C1C(C(=O)OCc2c(F)c(F)c(COC)c(F)c2F)C1(C)C (centres unmarked) [metofluthrin] | about 1.9 mg/day | 20 days |  |  |  |  |  |  | 
2 | CC1(C)[C@H](C=C(Cl)Cl)[C@H]1C(=O)OCc1c(F)c(F)cc(F)c1F [transfluthrin] | about 1.5 mg/day | approximately 36 days | exceeding one year | greater than 70 days | about 4 mg/day | greater than 70 days | about 6 mg/day | greater than 70 days | about 4 mg/day
